Laboratory results taken from ChEMBL document CHEMBL4196008, “Structure activity relationships, multidrug resistance reversal and selectivity of heteroarylphenyl ABCG2 inhibitors” (Eur J Med Chem, 2018).

Assays:
[1] = molecular target: T1, Broad substrate specificity ATP-binding cassette transporter ABCG2 (Homo sapiens, UniProt Q9UNQ0)
T1 sequence (Q9UNQ0 whole entry): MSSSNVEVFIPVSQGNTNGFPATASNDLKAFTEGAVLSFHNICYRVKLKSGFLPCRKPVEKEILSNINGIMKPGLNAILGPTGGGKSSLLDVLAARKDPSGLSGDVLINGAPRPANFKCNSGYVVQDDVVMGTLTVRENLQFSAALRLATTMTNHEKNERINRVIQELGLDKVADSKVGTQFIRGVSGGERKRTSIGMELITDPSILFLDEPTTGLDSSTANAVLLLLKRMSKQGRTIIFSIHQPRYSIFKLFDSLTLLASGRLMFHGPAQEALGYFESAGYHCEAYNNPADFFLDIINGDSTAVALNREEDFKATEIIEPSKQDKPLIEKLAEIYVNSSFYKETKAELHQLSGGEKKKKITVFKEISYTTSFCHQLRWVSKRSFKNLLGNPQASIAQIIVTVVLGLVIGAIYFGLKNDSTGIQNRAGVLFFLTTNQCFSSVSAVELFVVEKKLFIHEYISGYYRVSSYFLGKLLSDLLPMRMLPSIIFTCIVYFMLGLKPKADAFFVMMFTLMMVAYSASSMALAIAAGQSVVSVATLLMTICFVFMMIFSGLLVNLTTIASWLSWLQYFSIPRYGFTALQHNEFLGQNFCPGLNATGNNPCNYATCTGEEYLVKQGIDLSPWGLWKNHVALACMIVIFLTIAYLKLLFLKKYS
Description: Inhibition of C-terminal GFP-fused human ABCG2 expressed in MDCK2 cells preincubated for 30 mins followed by Hoechst 33342 addition and measured every 60 secs for 120 mins by Hoechst 33342 accumulation assay

ABCG2 [2] = molecular target: T2, ABCG2 (Homo sapiens, UniProt Q9UNQ0); experiment: Inhibition of C-terminal GFP-fused human ABCG2 expressed in MDCK2 cells up to 10 uM preincubated for 30 mins followed by Hoechst 33342 addition and measured every 60 secs for 120 mins by Hoechst 33342 accumulation assay relative to XR9577; type: cell-based; settings: MDCK2 cells expressing C-terminal GFP-fused human ABCG2, probe Hoechst 33342, read-out: Imax
T2 sequence (Q9UNQ0 whole entry): T1 sequence (Q9UNQ0 whole entry)

[3] = Resistance factor, ratio of SN-38 GI50 for MDCK2 cells expressing C-terminal GFP-fused human ABCG2 in presence of 0.100 uM test compound to SN-38 GI50 for MDCK2 cells in absence of test compound; type: functional
[4] = Resistance factor, ratio of SN-38 GI50 for MDCK2 cells expressing C-terminal GFP-fused human ABCG2 in presence of 0.0100 uM test compound to SN-38 GI50 for MDCK2 cells in absence of test compound; type: functional
[5] = Resistance factor, ratio of SN-38 GI50 for MDCK2 cells expressing C-terminal GFP-fused human ABCG2 in presence of 0.316 uM test compound to SN-38 GI50 for MDCK2 cells in absence of test compound; type: functional
ABCG2 [6] = experiment: Therapeutic index, ratio of GI50 for MDCK2 cells expressing C-terminal GFP-fused human ABCG2 to IC50 for C-terminal GFP-fused human ABCG2 expressed in MDCK2 BCRP cells; type: toxicity, cell-based; settings: dog, read-out: TI
[7] = Growth inhibition of MDCK2 cells after 72 hrs by MTT assay; type: cell-based, Canis lupus familiaris, MDCK-II; settings: dog
[8] = Resistance factor, ratio of SN-38 GI50 for MDCK2 cells expressing C-terminal GFP-fused human ABCG2 in presence of 0.0316 uM test compound to SN-38 GI50 for MDCK2 cells in absence of test compound; type: functional
[9] = Growth inhibition of MDCK2 cells expressing C-terminal GFP-fused human ABCG2 after 72 hrs by MTT assay; type: ADME, cell-based, Canis lupus familiaris, MDCK-II; settings: dog
[10] = molecular target: ATP-dependent translocase ABCB1 (Homo sapiens, UniProt P08183); experiment: Inhibition of ABCB1 in human A2780adr cells assessed as reduction in calcein AM levels preincubated for 30 mins followed by calcein AM addition measured immediately at 60 sec time interval for 60 mins by fluorescence assay; type: cell-based
ATP-dependent translocase ABCB1, sequence (P08183 whole entry, the tested form may be a part): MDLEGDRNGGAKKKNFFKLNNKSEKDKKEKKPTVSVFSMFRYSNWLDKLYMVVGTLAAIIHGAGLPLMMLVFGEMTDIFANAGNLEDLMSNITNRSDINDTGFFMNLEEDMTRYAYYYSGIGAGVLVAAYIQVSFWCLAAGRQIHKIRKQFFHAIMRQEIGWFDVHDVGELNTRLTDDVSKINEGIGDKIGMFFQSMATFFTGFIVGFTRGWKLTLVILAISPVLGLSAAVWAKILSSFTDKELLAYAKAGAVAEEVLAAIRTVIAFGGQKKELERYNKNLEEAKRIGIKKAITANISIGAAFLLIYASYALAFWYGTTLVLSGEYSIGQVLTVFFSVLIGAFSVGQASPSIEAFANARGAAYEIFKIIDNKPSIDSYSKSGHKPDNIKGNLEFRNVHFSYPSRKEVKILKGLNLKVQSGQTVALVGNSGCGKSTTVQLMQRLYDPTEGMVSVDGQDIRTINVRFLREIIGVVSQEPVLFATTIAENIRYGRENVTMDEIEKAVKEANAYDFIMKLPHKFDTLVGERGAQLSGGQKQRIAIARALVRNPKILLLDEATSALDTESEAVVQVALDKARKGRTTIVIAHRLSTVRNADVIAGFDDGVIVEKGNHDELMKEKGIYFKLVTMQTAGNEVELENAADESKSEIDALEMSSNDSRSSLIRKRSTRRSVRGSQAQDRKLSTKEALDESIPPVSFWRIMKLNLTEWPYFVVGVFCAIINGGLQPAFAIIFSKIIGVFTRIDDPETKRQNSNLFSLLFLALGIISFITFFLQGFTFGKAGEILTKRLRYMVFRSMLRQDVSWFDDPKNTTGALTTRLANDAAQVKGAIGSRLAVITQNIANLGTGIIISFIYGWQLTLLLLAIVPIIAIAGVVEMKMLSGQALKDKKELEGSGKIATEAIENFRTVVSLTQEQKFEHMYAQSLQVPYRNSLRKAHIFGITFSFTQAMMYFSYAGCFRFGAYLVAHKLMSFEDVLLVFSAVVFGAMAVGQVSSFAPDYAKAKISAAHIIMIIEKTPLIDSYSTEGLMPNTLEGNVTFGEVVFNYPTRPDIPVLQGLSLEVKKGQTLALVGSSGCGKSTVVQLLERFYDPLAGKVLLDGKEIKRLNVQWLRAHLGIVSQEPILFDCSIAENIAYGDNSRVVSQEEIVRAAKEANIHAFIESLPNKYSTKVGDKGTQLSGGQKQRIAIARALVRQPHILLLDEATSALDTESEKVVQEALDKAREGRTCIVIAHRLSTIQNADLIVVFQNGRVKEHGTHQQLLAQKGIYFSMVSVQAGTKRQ

[11] = molecular target: T1, Broad substrate specificity ATP-binding cassette transporter ABCG2; experiment: Inhibition of C-terminal GFP-fused human ABCG2 expressed in MDCK2 cells up to 10 uM preincubated for 30 mins followed by Hoechst 33342 addition and measured every 60 secs for 120 mins by Hoechst 33342 accumulation assay; type: cell-based; settings: 2 h
[12] = Resistance factor, ratio of SN-38 GI50 for MDCK2 cells expressing C-terminal GFP-fused human ABCG2 in presence of 1 uM test compound to SN-38 GI50 for MDCK2 cells in absence of test compound; type: functional
ABCB1 = ABCB1 (Homo sapiens, UniProt P08183); experiment: Inhibition of ABCB1 in human A2780adr cells assessed as reduction in calcein AM levels at 10 uM preincubated for 30 mins followed by calcein AM addition measured immediately at 60 sec time interval for 60 mins by fluorescence assay relative to control; type: cell-based; settings: probe calcein AM
ABCB1, sequence (P08183 whole entry): as the sequence (P08183 whole entry, the tested form may be a part) above

Row | Structure (SMILES) | IC50 [1] | Emax at 2 h (ABCG2 [2]) | further results
1 | O=C(Nc1ccccc1-c1nnn(-c2ccccc2)n1)c1cccs1 | 270 nM | 106% | –
2 | COc1ccc(C(=O)Nc2ccccc2-n2cc(-c3ccc(OC)cc3)nn2)cc1 | 2360 nM | 100% | –
3 | O=C(Nc1ccccc1-c1nnn(-c2ccccc2)n1)c1ccc2c(c1)OCO2 | 259 nM | 123% | –
4 | COc1ccc(-n2nnc(-c3ccc(NC(=O)c4ccc(C(F)(F)F)cc4)cc3)n2)cc1 | 39800 nM | 100% | –
5 | O=C(Nc1ccccc1-c1nnc(-c2ccccc2)o1)c1ccccc1 | 112 nM | 101% | RatioGI50 [3]: 1.52; RatioGI50 [4]: 5.51; RatioGI50 [5]: 1.49; selectivity ratio (ABCG2 [6]): 658; GI50 at 72 h [7]: 60800 nM; RatioGI50 [8]: 2.61; GI50 at 72 h [9]: 73700 nM
6 | CC(=O)Nc1ccccc1-c1nnn(-c2ccccc2)n1 | 6910 nM | 100% | –
7 | c1ccc(-c2ccccc2-c2nnn(-c3ccccc3)n2)cc1 | 8340 nM | 100% | –
8 | COc1ccc(-n2nnc(-c3ccccc3NC(=O)c3ccc(C(F)(F)F)cc3)n2)cn1 | 130 nM | 95% | –
9 | COc1ccc(-n2nnc(-c3ccccc3NS(=O)(=O)c3ccc(OC)cc3)n2)cc1 | 7670 nM | 100% | –
10 | COc1ccc(-n2nnc(-c3ccccc3NC(=O)c3cnc4ccccc4c3)n2)cc1 | 228 nM | 82% | –
11 | COc1ccc(-c2cn(-c3ccccc3NC(=O)c3ccc(C(F)(F)F)cc3)nn2)cc1 | 766 nM | 118% | –
12 | COc1ccc(-n2nnc(-c3ccccc3NC(=O)c3ccccc3)n2)cn1 | 102 nM | 120% | –
13 | COc1ccc(-n2nnc(-c3ccccc3NC(C)=O)n2)cc1 | 3230 nM | 100% | –
14 | COc1ccc(-n2nnc(-c3ccccc3NC(=O)c3cccc4ccccc34)n2)cc1 | 267 nM | 78% | –
15 | COc1ccc(C(=O)Nc2ccccc2-c2nnn(-c3ccc(OC)nc3)n2)cc1 | 61.6 nM | 103% | IC50 [10]: 8550 nM; RatioGI50 [3]: 1.1; RatioGI50 [4]: 4.49; RatioGI50 [5]: 1.04; selectivity ratio (ABCG2 [6]): 1270; GI50 at 72 h [7]: 80100 nM; RatioGI50 [8]: 2.64; GI50 at 72 h [9]: 78000 nM
16 | COc1ccc(C(=O)Nc2ccccc2-c2nnn(-c3ccc(OC)cc3)n2)cc1 | – | – | inhibition (INH) [11]: Not Active
17 | O=C(Nc1ccccc1-n1cc(-c2ccccc2)nn1)c1ccccc1 | 15300 nM | 100% | IC50 [10]: 21200 nM; RatioGI50 [3]: 3.59; RatioGI50 [12]: 1.63; RatioGI50 [5]: 2.38; selectivity ratio (ABCG2 [6]): 33.1; GI50 at 72 h [7]: 452000 nM; RatioGI50 [8]: 5.37; GI50 at 72 h [9]: 506000 nM
18 | O=C(Nc1ccccc1-c1nnn(-c2ccccc2)n1)c1ccncc1 | 287 nM | 97% | –

Row | Structure (SMILES) | IC50 [1] | Emax at 2 h (ABCG2 [2]) | further results
19 | COc1ccc(-n2nnc(-c3cc(OC)ccc3NC(=O)c3ccc(C(F)(F)F)cc3)n2)cc1 | 77.4 nM | 96% | –
20 | O=C(Nc1ccccc1-c1nnn(-c2ccccc2)n1)c1cccnc1 | 445 nM | 81% | –
21 | O=C(Nc1ccccc1-c1nnn(-c2ccccc2)n1)c1cccc2ccccc12 | 430 nM | 85% | –
22 | COc1ccc(-n2nnc(-c3ccccc3NC(=O)c3ccc(C(F)(F)F)cc3)n2)cc1 | – | – | inhibition (INH) [11]: Not Active
23 | O=C(Nc1ccccc1-c1nnn(-c2ccccc2)n1)C1CCCCC1 | 287 nM | 97% | –
24 | COc1ccc(-n2nnc(-c3ccccc3NC(=O)c3cccs3)n2)cc1 | 351 nM | 90% | –
25 | O=C(Nc1ccccc1-c1nnn(-c2ccccc2)n1)C12CC3CC(CC(C3)C1)C2 | 1060 nM | 99% | IC50 [10]: 11000 nM; inhibition at 1 h, 10 µM (ABCB1): 51%
26 | COc1ccc(-n2nnc(-c3ccccc3-n3nnc(-c4ccc(C(F)(F)F)cc4)n3)n2)cc1 | 15800 nM | 100% | –
27 | COc1ccc(C(=O)Nc2ccccc2-c2nn[nH]n2)cc1 | – | – | inhibition (INH) [11]: Not Active
28 | O=C(Nc1ccccc1-c1nnn(-c2ccccc2)n1)c1ccccn1 | 733 nM | 99% | IC50 [10]: 5910 nM
29 | COc1ccc(-n2nnc(-c3ccccc3NC(=O)C3CCCCC3)n2)cc1 | 565 nM | 95% | –
30 | COc1ccc(C(=O)Nc2ccccc2-c2nnc(-c3ccc(OC)cc3)o2)cc1 | 438 nM | 124% | RatioGI50 [3]: 2.17; RatioGI50 [4]: 6.61; RatioGI50 [5]: 1.29; selectivity ratio (ABCG2 [6]): 836; GI50 at 72 h [7]: 487000 nM; RatioGI50 [8]: 5.07; GI50 at 72 h [9]: 404000 nM
31 | O=C(Nc1ccccc1-c1nnn(-c2ccccc2)n1)c1cnc2ccccc2c1 | 176 nM | 51% | –
32 | COc1ccc(-n2nnc(-c3cc(OC)ccc3NC(=O)c3ccc([N+](=O)[O-])cc3)n2)cc1 | 129 nM | 50% | –
33 | COc1ccc(-n2nnc(-c3cccc(NC(=O)c4ccc(C(F)(F)F)cc4)c3)n2)cc1 | 18500 nM | 100% | –
34 | O=C(Nc1ccccc1-c1nn[nH]n1)c1ccccc1 | – | – | inhibition (INH) [11]: Not Active
35 | O=C(Nc1ccccc1-c1nnn(-c2ccccc2)n1)c1ccc2c(c1)OCCO2 | 190 nM | 106% | –
36 | COc1ccc(-c2nnc(-c3ccccc3NC(=O)c3ccc(C(F)(F)F)cc3)o2)cc1 | 90 nM | 47% | –
